Measured values taken from patent publication US20260078341A1, “TREATMENT OF CANCER USING CHIMERIC ANTIGEN RECEPTOR” (Novartis AG, priority 2014, published 2026).
Values joined by “and” are separate entries in the source; they are usually repeats but may differ in a detail not shown here. Identical values can stand only once. Like-named read-outs stand apart in the source and are kept apart here. Marks after values point to notes of the source that are not given here.

What was measured:
[1] = tested on: A/H3N2 strain A/Victoria/361/11; assay: Seroconversion to heterologous A/H3N2 strain; type: in vivo, human; conditions: for Percentage of subjects who seroconvert to heterologous strain A/H3N2 A/Victoria/361/11: 4 weeks after seasonal influenza vaccination
[2] = tested on: influenza vaccine strains and heterologous influenza strains; assay: Influenza geometric mean titers 4 weeks after vaccination in RAD001 cohorts; type: in vivo, human; conditions: relative to placebo
Text: FIGS. 41A and 41B. […] In FIG. 41A, the increase above baseline in influenza geometric mean titers to each of the 3 influenza vaccine strains (H1N1 A/California/07/2009, H3N2 A/Victoria/210/2009, B/Brisbane/60/2008) relative to the increase in the placebo cohort 4 weeks after vaccination is shown for each of the RAD001 dosing cohorts in the intention to treat population. […] FIG. 41B is a graph of the same data as in FIG. 41A for the subset of subjects with baseline influenza titers <=1:40.
The increase above baseline in influenza geometric mean titers to 2 heterologous influenza strains (A/H1N1 strain A/New Jersey/8/76 and A/H3N2 strain A/Victoria/361/11) not contained in the influenza vaccine relative to the increase in the placebo cohort 4 weeks after vaccination is shown for each of the RAD001 dosing cohorts in the intention to treat population. * indicates increase in titer relative to placebo exceeds 1 with a posterior probability of at least 80%.

[3] = tested on: PD-1 positive CD4 and CD8 T cells; type: in vivo, human
[4] = tested on: influenza vaccine strains; assay: Primary endpoint: HI GMT ratio relative to placebo in at least 2 of 3 influenza vaccine strains; type: in vivo, human; conditions: ITT population
Procedure: (§1) The ability of RAD001 to improve immune function in elderly volunteers was evaluated by measuring the serologic response to the 2012 seasonal influenza vaccine. The hemagglutination inhibition (HI) geometric mean titers (GMT) to each of the 3 influenza vaccine strains at baseline and 4 weeks after influenza vaccination are provided in Table 6. The primary analysis variable was the HI GMT ratio (4 weeks post vaccination/baseline). […] This endpoint was chosen because a 1.2-fold increase in the influenza GMT ratio induced by the MF-59 vaccine adjuvant was associated with a decrease in influenza illness (Iob, A et al. (2005) Epidemiol Infect 133:687-693).
Elderly volunteers >=65 years of age were randomized to one of the 3 RAD001 treatment groups (50 subjects per arm) or placebo (20 subjects per arm). Subjects were treated with study drug for 6 weeks, given a 2 week break, and then received influenza (Aggrippal, Novartis) and pneumoccal (Pneumovax 23, Merck), vaccinations. Response to influenza vaccination was assessed by measuring the geometric mean titers (GMTs) by hemagglutination inhibition assay to the 3 influenza strains (H1N1, H3N2 and B influenza subtypes) in the influenza vaccine 4 weeks after vaccination. […] Antibody titers to 7 of the serotypes were measured in our subjects.

B/Brisbane/60/2008 = assay: Hemagglutination inhibition titers after influenza vaccination, B vaccine strain; type: in vivo, human; conditions: for HI GMT ratio (CV %) B: GMT at week 4 post vaccination/GMT at baseline
Procedure: (§2) The trial was observer-blind because the placebo in the RAD001 0.5 mg daily and 20 mg weekly cohorts differed slightly from the RAD001 tablets in those cohorts. […] The treatment duration for all cohorts was 6 weeks during which time subjects underwent safety evaluations in the clinic every 2 weeks. After subjects had been dosed for 4 weeks, RAD001 steady state levels were measured pre-dose and at one hour post dose. After completing the 6 week course of study drug, subjects were given a 2 week drug free break to reverse any possible RAD001-induced immunosuppression, and then were given a 2012 seasonal influenza vaccination (Agrippal®, Novartis Vaccines and Diagnostics, Siena, Italy) containing the strains H1N1 A/California/07/2009, H3N2 A/Victoria/210/2009, B/Brisbane/60/2008. Four weeks after influenza vaccination, subjects had serum collected for influenza titer measurements. Antibody titers to the 3 influenza vaccine strains as well as to 2 heterologous strains (A/H1N1 strain A/New Jersy/8/76 and A/H3N2 strain A/Victoria/361/11) were measured by standard hemagglutination inhibition assay (Kendal, A P et al. (1982) Concepts and procedures for laboratory-based influenza surveillance. Atlanta: Centers for Disease Control and Prevention B17-B35). Levels of IgG and IgM specific for the A/H1N1/California/07/2009 were measured in serum samples taken before and 4 weeks after influenza vaccination as described previously (Spensieri, F. et al. (2013) Proc. Natl. Acad. Sci. USA 110:14330-14335). Results were expressed as fluorescence intensity.
The primary analysis of geometric mean titer ratios was done using a normal Bayesian regression model with non-informative priors. This model was fitted to each antibody titer on the log scale. The primary outcome in each model was the Day 84 measurement. The Day 63 measurement was included in the outcome vector. The model fitted using SAS 9.2 proc mixed with the prior statement. The covariance structure of the matrix was considered as unstructured (option type=UN). A flat prior was used. For the secondary analysis of seroconversion rates, logistic regression was used.
as §1
Rates of seroconversion 4 weeks after influenza vaccination were also evaluated. Seroconversion was defined as the change from a negative pre-vaccination titer (i.e., HI titer <1:10) to post-vaccination HI titer ≥1:40 or at least 4-fold increase from a non-negative (>1:10) pre-vaccination HI titer.

[5] = tested on: A/H1N1/California/07/2009; assay: Anti-influenza IgG and IgM levels in serum; type: in vivo, human; conditions: 4 weeks after influenza vaccination
Procedure: as §2, with “After completing the 6 week course of study drug, subjects were given a 2 week drug free break to reverse any possible RAD001-induced immunosuppression, and then were given a 2012 seasonal influenza vaccination (Agrippal®, Novartis Vaccines and Diagnostics, Siena, Italy) containing the strains H1N1 A/California/07/2009, H3N2 A/Victoria/210/2009, B/Brisbane/60/2008. Four weeks after influenza vaccination, subjects had serum collected for influenza titer measurements.” left out

[6] = Questionnaires on energy and exercise one year after dosing; type: in vivo, human; conditions: 0.5 mg daily dosing cohort

SMILES: CO[C@H]1C[C@@H]2CC[C@@H](C)[C@@](O)(O2)C(=O)C(=O)N2CCCC[C@H]2C(=O)O[C@H]([C@H](C)C[C@@H]2CC[C@@H](OCCO)[C@H](OC)C2)CC(=O)[C@H](C)/C=C(\C)[C@@H](O)[C@@H](OC)C(=O)[C@H](C)C[C@H](C)/C=C/C=C/C=C/1C [RAD001, (1R,9S,12S,15R,16E,18R,19R,21R,23S,24E,26E,28E,30S,32S,35R)-1,18-dihydroxy-12-{(1R)-2-[(1S,3R,4R)-4-(2-hydroxyethoxy)-3-methoxycyclohexyl]-1-methylethyl}-19,30-dimethoxy-15,17,21,23,29,35-hexamethyl-11,36-dioxa-4-azatricyclo[30.3.1.0^4,9]hexatriaconta-16,24,26,28-tetraene-2,3,10,14,20-pentaone]
- Percentage of subjects who seroconvert to heterologous strain A/H3N2 A/Victoria/361/11 ([1]; RAD001 0.5 mg daily): 38%
- Percentage of subjects who seroconvert to heterologous strain A/H3N2 A/Victoria/361/11 ([1]; RAD001 5 mg weekly): 39%*
- Percentage of subjects who seroconvert to heterologous strain A/H3N2 A/Victoria/361/11 ([1]; RAD001 20 mg weekly): 40%*
- H3N2 heterologous strain seroconversion rate ([1]; pooled RAD001 cohorts, versus 20% placebo, p=0.007): 39%
- titers to heterologous influenza strains [2]: increase in titers to heterologous influenza strains as compared to placebo
- titers to influenza vaccine strains [2]: increase in titers to influenza vaccine strains as compared to placebo
- decrease in PD-1 positive CD8 T cells compared to placebo cohort ([3]; in vivo): 37.4% and 41.4%
- decrease in PD-1 positive CD4 T cells compared to placebo cohort ([3]; week 6, pooled RAD cohort (n=84), p=0.03): 30.2%
- decrease in PD-1 positive CD4 T cells compared to placebo cohort ([3]; week 12, pooled RAD cohort, p=0.05): 32.7%
- primary endpoint of the study (HI GMT ratio) ([4]; 0.5 mg daily or 5 mg weekly): met the GMT primary endpoint
- primary endpoint of the study (HI GMT ratio) ([4]; 20 mg weekly): but not higher dose (20 mg weekly) cohort met the primary endpoint
- average RAD001 trough level (0.5 mg daily dosing cohort): 0.9 ng/mL
- average RAD001 trough level (20 mg weekly dosing cohort): 0.7 ng/mL
- trough level of the study regimens relative to oncology and transplant regimens, fold lower (dosing regimens used in the immunization study): 3-20 fold
- HI GMT (CV %) B (B/Brisbane/60/2008; Baseline (2 weeks prior to influenza vaccination), RAD001 0.5 mg daily): 44.2 (96.6)
- HI GMT (CV %) B (B/Brisbane/60/2008; Baseline (2 weeks prior to influenza vaccination), RAD001 5 mg weekly): 64.8 (87.3)
- HI GMT (CV %) B (B/Brisbane/60/2008; Baseline (2 weeks prior to influenza vaccination), RAD001 20 mg weekly): 58.0 (156.0)
- HI GMT ratio (CV %) B (B/Brisbane/60/2008; RAD001 0.5 mg daily): 2.5 (111.2)
- HI GMT ratio (CV %) B (B/Brisbane/60/2008; RAD001 5 mg weekly): 2.2 (112.8)
- HI GMT ratio (CV %) B (B/Brisbane/60/2008; RAD001 20 mg weekly): 2.1 (126.5)
- Percent of subjects with seroconversion to influenza 4 weeks after vaccination, B (B/Brisbane/60/2008; Intention to Treat Population, 0.5 mg): 27%
- Percent of subjects with seroconversion to influenza 4 weeks after vaccination, B (B/Brisbane/60/2008; Intention to Treat Population, 5 mg): 22%
- Percent of subjects with seroconversion to influenza 4 weeks after vaccination, B (B/Brisbane/60/2008; Intention to Treat Population, 20 mg): 19%
- Percent of subjects with seroconversion to influenza 4 weeks after vaccination, B (B/Brisbane/60/2008; Subjects with Baseline Titers <=40, 0.5 mg): 40* Percent
- Percent of subjects with seroconversion to influenza 4 weeks after vaccination, B (B/Brisbane/60/2008; Subjects with Baseline Titers <=40, 5 mg): 33%
- Percent of subjects with seroconversion to influenza 4 weeks after vaccination, B (B/Brisbane/60/2008; Subjects with Baseline Titers <=40, 20 mg): 28%
- HI GMT (CV %) B (B/Brisbane/60/2008; Week 4 after influenza vaccination, RAD001 0.5 mg daily): 98.4 (94.8)
- HI GMT (CV %) B (B/Brisbane/60/2008; Week 4 after influenza vaccination, RAD001 5 mg weekly): 117.3 (99.9)
- HI GMT (CV %) B (B/Brisbane/60/2008; Week 4 after influenza vaccination, RAD001 20 mg weekly): 99.2 (124.1)
- post-vaccination anti-influenza IgM and IgG levels, RAD001 versus placebo [5]: did not differ
- energy and exercise ability as compared to placebo [6]: increased energy and exercise ability
